Data published in PubChem BioAssay (NCI).
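Method: 48-hour compound exposure of cells in 96-well plates, five concentrations, linear interpolation of endpoints. TGI is the concentration that stops growth completely.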

Tests used:
Test in all cases: DTP human tumour cell line panel, 48 h
[1] = system: SF-268 CNS
[2] = system: UO-31 renal
[3] = system: SK-MEL-5 melanoma
[4] = system: K-562 leukemia
[5] = system: MOLT-4 leukemia
[6] = system: LOX IMVI melanoma
[7] = system: A549 NSCLC
[8] = system: OVCAR-4 ovarian
[9] = system: CCRF-CEM leukemia
[10] = system: MDA-MB-435
[11] = system: SNB-19 CNS
[12] = system: HOP-92 NSCLC
[13] = system: SF-295 CNS
[14] = system: RXF 393 renal
[15] = system: UACC-257 melanoma
[16] = system: MALME-3M melanoma
[17] = system: HCC-2998 colon
[18] = system: OVCAR-5 ovarian
[19] = system: MDA-MB-231 breast
[20] = system: M14 melanoma
[21] = system: NCI-H460 lung
[22] = system: SN12C renal
[23] = system: NCI-H522 lung
[24] = system: NCI-H226 lung
[25] = system: T-47D breast
[26] = system: HT29 colon
[27] = system: OVCAR-8 ovarian
[28] = system: NCI-H23 lung
[29] = system: UACC-62 melanoma
[30] = system: TK-10 renal
[31] = system: SNB-75 CNS
[32] = system: 786-0 renal
[33] = system: BT-549 breast
[34] = system: NCI/ADR-RES ovarian
[35] = system: SK-MEL-28 melanoma
[36] = system: U251 CNS
[37] = system: RPMI-8226 leukemia
[38] = system: HOP-62 NSCLC
[39] = system: HCT-116 colon
[40] = system: EKVX NSCLC
[41] = system: KM12 colon
[42] = system: COLO 205 colon
[43] = system: OVCAR-3 ovarian
[44] = system: A498 renal
[45] = system: HS 578T breast
[46] = system: ACHN renal
[47] = system: SK-OV-3 ovarian
[48] = system: PC-3 prostate
[49] = system: IGROV1 ovarian
[50] = system: DU-145 prostate
[51] = system: CAKI-1 renal
[52] = system: MDA-N
[53] = system: SK-MEL-2 melanoma
[54] = system: HCT-15 colon
[55] = system: SW-620 colon
[56] = system: MCF7 breast
[57] = system: HL-60(TB) leukemia
[58] = system: SF-539 CNS
[59] = system: SR leukemia

SMILES: CC(=O)O[C@H]1C[C@@H](OC(C)=O)[C@@](C)(O)[C@@H]2[C@@H](OC(C)=O)[C@@]3(O)[C@H](/C=C(/CO)[C@H]4O[C@H]4[C@@H](OC(C)=O)[C@@]12C)OC(=O)[C@@H]3C
- TGI [1]: > 25 µM
- TGI [2]: > 25 µM
- TGI [3]: > 25 µM
- TGI [4]: > 25 µM
- TGI [5]: > 25 µM
- TGI [6]: > 25 µM
- TGI [7]: > 25 µM
- TGI [8]: > 25 µM
- TGI [9]: > 25 µM
- TGI [10]: > 25 µM
- TGI [11]: > 25 µM
- TGI [12]: > 25 µM
- TGI [13]: 16.8 µM
- TGI [14]: 10.7 µM
- TGI [15]: > 25 µM
- TGI [16]: > 25 µM
- TGI [17]: > 25 µM
- TGI [18]: > 25 µM
- TGI [19]: > 25 µM
- TGI [20]: > 25 µM
- TGI [21]: > 25 µM
- TGI [22]: > 25 µM
- TGI [23]: 15.6 µM
- TGI [24]: > 25 µM
- TGI [25]: > 25 µM
- TGI [26]: > 25 µM
- TGI [27]: > 25 µM
- TGI [28]: > 25 µM
- TGI [29]: > 25 µM
- TGI [30]: > 25 µM
- TGI [31]: 17.5 µM
- TGI [32]: > 25 µM
- TGI [33]: > 25 µM
- TGI [34]: > 25 µM
- TGI [35]: > 25 µM
- TGI [36]: 21.4 µM
- TGI [37]: > 25 µM
- TGI [38]: > 25 µM
- TGI [39]: > 25 µM
- TGI [40]: > 25 µM
- TGI [41]: > 25 µM
- TGI [42]: > 25 µM
- TGI [43]: 15.5 µM
- TGI [44]: > 25 µM
- TGI [45]: > 25 µM
- TGI [46]: > 25 µM
- TGI [47]: > 25 µM
- TGI [48]: > 25 µM
- TGI [49]: > 25 µM
- TGI [50]: 12 µM
- TGI [51]: > 25 µM
- TGI [52]: 7.63 µM
- TGI [53]: > 25 µM
- TGI [54]: > 25 µM
- TGI [55]: > 25 µM

SMILES: C#C[C@@]1(O)CCCC2=CC3(CC[C@]21C)SCCS3
- TGI [1]: > 100 µM
- TGI [2]: > 100 µM
- TGI [3]: > 100 µM
- TGI [4]: > 100 µM
- TGI [5]: > 100 µM
- TGI [6]: > 100 µM
- TGI [7]: > 100 µM
- TGI [8]: > 100 µM
- TGI [10]: > 100 µM
- TGI [11]: > 100 µM
- TGI [12]: > 100 µM
- TGI [13]: > 100 µM
- TGI [14]: > 100 µM
- TGI [15]: > 100 µM
- TGI [16]: > 100 µM
- TGI [17]: > 100 µM
- TGI [18]: > 100 µM
- TGI [19]: > 100 µM
- TGI [20]: > 100 µM
- TGI [21]: > 100 µM
- TGI [56]: > 100 µM
- TGI [22]: > 100 µM
- TGI [23]: > 100 µM
- TGI [24]: > 100 µM
- TGI [25]: > 100 µM
- TGI [26]: > 100 µM
- TGI [27]: > 100 µM
- TGI [28]: > 100 µM
- TGI [29]: > 100 µM
- TGI [30]: > 100 µM
- TGI [57]: > 100 µM
- TGI [32]: > 100 µM
- TGI [34]: > 100 µM
- TGI [35]: > 100 µM
- TGI [36]: > 100 µM
- TGI [58]: > 100 µM
- TGI [59]: > 100 µM
- TGI [37]: > 100 µM
- TGI [38]: > 100 µM
- TGI [39]: > 100 µM
- TGI [40]: > 100 µM
- TGI [41]: > 100 µM
- TGI [42]: > 100 µM
- TGI [43]: > 100 µM
- TGI [44]: > 100 µM
- TGI [45]: > 100 µM
- TGI [46]: > 100 µM
- TGI [47]: > 100 µM
- TGI [48]: > 100 µM
- TGI [49]: > 100 µM
- TGI [50]: > 100 µM
- TGI [52]: > 100 µM
- TGI [53]: > 100 µM
- TGI [54]: > 100 µM
- TGI [55]: > 100 µM

SMILES: C=CCOC(OCC=C)/C(Br)=C/C
- TGI [1]: 75.2 µM
- TGI [2]: > 100 µM
- TGI [3]: > 100 µM
- TGI [4]: > 100 µM
- TGI [6]: 39.5 µM
- TGI [7]: > 100 µM
- TGI [8]: 63.7 µM
- TGI [9]: > 100 µM
- TGI [10]: > 100 µM
- TGI [11]: > 100 µM
- TGI [12]: > 100 µM
- TGI [13]: > 100 µM
- TGI [14]: > 100 µM
- TGI [15]: > 100 µM
- TGI [17]: > 100 µM
- TGI [18]: > 100 µM
- TGI [19]: > 100 µM
- TGI [20]: > 100 µM
- TGI [21]: > 100 µM
- TGI [56]: > 100 µM
- TGI [22]: > 100 µM
- TGI [24]: > 100 µM
- TGI [25]: 72.6 µM
- TGI [26]: 62.3 µM
- TGI [27]: 37 µM
- TGI [28]: > 100 µM
- TGI [29]: > 100 µM
- TGI [30]: > 100 µM
- TGI [31]: > 100 µM
- TGI [57]: > 100 µM
- TGI [32]: 34 µM
- TGI [34]: 89.2 µM
- TGI [35]: > 100 µM
- TGI [36]: > 100 µM
- TGI [59]: > 100 µM
- TGI [37]: > 100 µM
- TGI [38]: > 100 µM
- TGI [39]: 28.1 µM
- TGI [40]: > 100 µM
- TGI [41]: > 100 µM
- TGI [42]: 52.9 µM
- TGI [43]: > 100 µM
- TGI [44]: > 100 µM
- TGI [45]: 72.2 µM
- TGI [46]: 45.3 µM
- TGI [47]: > 100 µM
- TGI [48]: > 100 µM
- TGI [50]: > 100 µM
- TGI [51]: > 100 µM
- TGI [52]: > 100 µM
- TGI [53]: > 100 µM
- TGI [54]: 89.3 µM
- TGI [55]: > 100 µM

SMILES: CN(O)C(=O)CCCC(=O)NCC(C)(C)CNC(=O)CCCC(=O)N(C)O
- TGI [1]: > 100 µM
- TGI [2]: > 100 µM
- TGI [3]: > 100 µM
- TGI [4]: > 100 µM
- TGI [5]: > 100 µM
- TGI [6]: > 100 µM
- TGI [7]: > 100 µM
- TGI [8]: > 100 µM
- TGI [9]: > 100 µM
- TGI [10]: > 100 µM
- TGI [11]: > 100 µM
- TGI [12]: > 100 µM
- TGI [13]: > 100 µM
- TGI [14]: > 100 µM
- TGI [15]: > 100 µM
- TGI [16]: > 100 µM
- TGI [17]: > 100 µM
- TGI [18]: > 100 µM
- TGI [19]: > 100 µM
- TGI [20]: > 100 µM
- TGI [21]: > 100 µM
- TGI [56]: > 100 µM
- TGI [24]: > 100 µM
- TGI [25]: > 100 µM
- TGI [26]: > 100 µM
- TGI [27]: > 100 µM
- TGI [28]: > 100 µM
- TGI [29]: > 100 µM
- TGI [30]: > 100 µM
- TGI [31]: > 100 µM
- TGI [57]: > 100 µM
- TGI [34]: > 100 µM
- TGI [36]: > 100 µM
- TGI [58]: > 100 µM
- TGI [59]: > 100 µM
- TGI [37]: > 100 µM
- TGI [38]: > 100 µM
- TGI [40]: > 100 µM
- TGI [41]: > 100 µM
- TGI [42]: > 100 µM
- TGI [43]: > 100 µM
- TGI [44]: > 100 µM
- TGI [45]: > 100 µM
- TGI [46]: > 100 µM
- TGI [47]: > 100 µM
- TGI [48]: > 100 µM
- TGI [49]: > 100 µM
- TGI [50]: > 100 µM
- TGI [51]: > 100 µM
- TGI [52]: > 100 µM
- TGI [53]: > 100 µM
- TGI [54]: > 100 µM
- TGI [55]: > 100 µM
